Here are results for 10 molecules from US20230012172A1, “COMPOSITIONS AND METHODS FOR TREATMENT OF PLATINUM-BASED CHEMOTHERAPEUTIC RESISTANT TUMORS” (The George Washington University, priority 2020, published 2023).

The subject of data set [1] is SENP1. The data set can be described thus: SENP1 IHC in IGROV1 xenograft tumors of carboplatin-treated mice. Type of data set: in vivo, immunodeficient nude mice. The conditions noted are these: carboplatin 20 mg/kg or 60 mg/kg. On the procedure: (§1) The SENP1 protein level was increased while JAK2 SUMOylation was decreased correspondingly in IGROV1 cells treated with cisplatin in a time and dose dependent manner (FIGS. 4F and 4G). To further test the SENP1 induction by platinum drugs in vivo, SENP1 protein levels were measured in IGROV1 xenograft tumors using immunohistochemistry (IHC) in implanted immunodeficient nude mice that were treated with carboplatin at 20 mg/kg or 60 mg/kg after tumor was developed.
Immunohistochemistry. Immunohistochemical (IHC) staining and scoring were performed similar to that previously described n Zhou et al., (2018) Oncogene 37, 3981-3997, the disclosure of which is incorporated herein in its entirety. The quantification of immunohistochemical staining was scored blindly at least by two independent observers.

The next data set relates to IGROV1 CR cells. Nature of the data set: Cell viability assay (SRB) in IGROV1 CR cells. The format is cell-based, human. The conditions noted are these: for toxicity (cell viability): 150 nM, IGROVI CR cells. On the procedure: (§2) Cell culture and resistance cell line establishment. IGROV1 cells, U2OS (HTB-96; ATCC), HEK293T (CRL-11268; ATCC) and SKOV3 cells (HTB-77; ATCC) were cultured at 37° C. in DMEM with 10% Fetal Bovine Serum (FBS). PEO1 (10032308; Sigma-Aldrich), PEO4 (10032309; Sigma-Aldrich), PEO14 (10032311; Sigma-Aldrich) and PE023 cells (10032313; Sigma-Aldrich) were cultured at 37° C. in RPMI-1640 with 10% FBS. OV90 (CRL-11732; ATCC) was cultured in medium containing 1:1 MCDB 105 (Sigma) and M199 (Sigma) supplemented with 10% FBS at 37 ° C. All the cells were cultured at in a humidified incubator with 5% CO2 atmosphere. Cisplatin resistant cell lines, including SKOV3 CR, IGROV1 CR and OV90 CR, were generated using an approach similar to that reported in Zhou et al., (2018) Oncogene 37, 3981-3997, the disclosure of which is incorporated herein in its entirety.
Cell viability assay. Cells were seeded at 3,000 cells/well in 96-well plates were treated with drugs, followed by incubation for 48 hours, after which cell viability was detected using Sulforhodamine B (SRB) assay (64). Absorbance at 510 nm was detected using a SpectraMax Reader (Molecular Devices) and analyzed with SoftMax Analysis Software (Molecular Devices). Combinational index (CI) values were calculated using CompuSyn software.

Another data set has as its system SKOV3 CR cells. Nature of the data set: Cell viability assay (SRB) in SKOV3 CR cells. Type of data set: cell-based. The conditions noted are these: for synergistic effects with cisplatin (combination index): SKOV3 CR cells. On the procedure:
as §2, with “Sigma-Aldrich) and PE023 cells (10032313;” left out, “ATCC) was cultured in medium containing 1:1 MCDB 105 (Sigma) and M199 (Sigma) supplemented with 10% FBS at 37 ° C.” left out, “entirety. Cell viability assay. Cells were seeded at 3,000 cells/well in 96-well plates were treated with drugs, followed by incubation for 48 hours, after which cell viability was detected using Sulforhodamine B (SRB) assay (64). Absorbance at 510 nm was detected using a SpectraMax Reader (Molecular Devices) and analyzed with SoftMax Analysis Software (Molecular Devices). Combinational index (CI) values were calculated using CompuSyn software.” for “entirety.”

Data set [2] deals with SENP1. The data set can be described thus: SENP1 protein and JAK2 SUMOylation in IGROV1 cells treated with cisplatin (Western blot). Type of data set: cell-based, human. The conditions noted are these: time and dose dependent. On the procedure: as §1
The test system of another data set is JAK2. Nature of the data set: Cell-free kinase assay with JAK2 purified from treated cells, recombinant STAT3 substrate. Type of data set: biochemical. The conditions noted are these: JAK2 purified from IGROV1 cells treated with inhibitor. On the procedure:
Phosphorylation of STAT3 at tyrosine 705 (Y705) by JAK2 is one of the most important and well established cytoplasmic functions of JAK2. To determine whether accumulation of JAK2 in nucleus by depleting SENP1 affected JAK2 cytoplasmic activity, phosphorylated STAT3 (pSTAT3 (Y705)) levels was evaluated in SENP1 depleted IGROV1 cells.
To this end, cell-free kinase assays were performed using JAK2 purified from cells treated with siSENP1 or UAMMC9.

In data set [3] the target is T1, SENP1 (Homo sapiens, UniProt Q9P0U3).
T1 sequence (Q9P0U3 1-644): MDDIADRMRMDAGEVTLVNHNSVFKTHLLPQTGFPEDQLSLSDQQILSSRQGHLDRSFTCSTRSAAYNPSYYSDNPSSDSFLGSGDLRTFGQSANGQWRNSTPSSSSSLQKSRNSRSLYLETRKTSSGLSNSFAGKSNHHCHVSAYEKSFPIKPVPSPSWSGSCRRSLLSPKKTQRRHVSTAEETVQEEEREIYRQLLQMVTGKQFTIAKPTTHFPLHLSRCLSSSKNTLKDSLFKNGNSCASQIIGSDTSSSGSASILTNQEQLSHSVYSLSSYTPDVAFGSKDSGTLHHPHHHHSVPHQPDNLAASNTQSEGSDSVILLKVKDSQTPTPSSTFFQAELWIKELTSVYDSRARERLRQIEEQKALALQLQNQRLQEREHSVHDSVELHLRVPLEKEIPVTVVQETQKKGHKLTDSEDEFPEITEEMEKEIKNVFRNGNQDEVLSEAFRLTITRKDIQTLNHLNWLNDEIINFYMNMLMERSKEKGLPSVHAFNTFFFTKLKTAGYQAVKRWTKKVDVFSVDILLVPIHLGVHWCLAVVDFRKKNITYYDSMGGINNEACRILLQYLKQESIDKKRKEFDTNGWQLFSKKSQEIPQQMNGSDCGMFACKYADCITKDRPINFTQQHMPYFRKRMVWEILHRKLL
The data set can be described thus: In vitro deSUMOylation assay with recombinant His-JAK2 and GST-SENP1. The format is biochemical. Also on record: made in house; host or cells: E. coli BL21 (DE3) for pET28a-JAK2. The conditions noted are these: SUMOylated His-JAK2 incubated with GST-SENP1 and compound for 3 hours. On the procedure:
To further determine whether SENP1 can directly deSUMOylate JAK2, in vitro deSUMOylation assays were performed by using purified recombinant His-JAK2 and GST-SENP1 proteins.
In vitro SUMOylation assay. The SUMOylation reactions were performed according to the manufacture's instruction (BML-UW8955-0001; ENZO). Briefly, 200 nM of purified HIS-JAK2 was suspended in reaction buffer (20 μl) containing Mg-ATP, SUMO E1, SUMO E2 and recombinant SUMOs. RanGAP1 (provided in the kit) was used as the substrate for positive control. The reaction was incubated at 37° C. for 60 minutes and terminated by using 20 μl of SDS loading buffer. […] The reactions were then subjected to Western blot to evaluate SUMOylation level.
Protein expression and purification. pET28a-JAK2 and its mutant was transformed in BL21 (DE3) E. coli cells by heat shot method at 42° C. and grown in Luria Broth (LB) at 37° C. E. coli cells were induced with 0.5 mM IPTG to induct protein expression. Cells were harvested by centrifugation at 5,000 g, 4° C. for 15 min and the pellet was resuspended in lysis buffer (20 mM Tris pH 7.9, 500 mM NaCl, 5 mM imidazole, 2 mM DTT and 1× protease inhibitor cocktail). Cells were then sonicated and centrifuged at 14,000 g, 4° C. for 15 min. 1 ml of Ni-NTA was added to the supernatant and incubated at 4° C. with end-to-end mixing for 2 hours and subjected to a column. The Ni-NTA resin was washed with 10 ml wash buffer (20 mM Tris pH 7.9, 250 mM NaCl, 15 mM Imidazole and 0.5 mM DTT) and eluted with 1 ml elution buffer (20 mM Tris pH 7.9, 250 mM NaCl and 1 M imidazole). The elute was then concentrated by using a protein concentrator (Thermo Scientific™ Pierce™) and resuspend in dialysis buffer (50 mM Tris pH 7.9, 50 mM NaCl, 2 mM DTT, and 10% glycerol). The purified protein was stored at −80° C. pGEX-4T1-SENP1 and its mutant were purified using following buffers: lysis buffer (1 mM DTT, and lx protease inhibitor cocktail, 800 mM NaCl, 5 mM EDTA, 50 mM Tris-pH8.0, 0.1% Triton x-100), wash buffer (800 mM NaCl, 5 mM EDTA, 50 mM Tris-pH8.0, 0.1% Triton x-100), elution buffer (40 mM glutathione, 800 mM NaCl, 5 mM EDTA, 50 mM Tris-pH8.0, 0.1% Triton x-100), dialysis buffer (50 mM Tris pH 7.9, 50 mM NaCl, 2 mM DTT, and 10% glycerol).

pIC50: −log10 of the molar value.

Consider `N.N.O=C([O-])C1(C(=O)[O-])CCC1.[Pt+2]` [Carboplatin, carboplatin], for which the “SENP1 expression in ovarian tumors (IHC)” value with SENP1 [1] was “significant increase”.

For the molecule `N.N.[Cl][Pt][Cl]` [Cisplatin, cisplatin], in the data set on IGROV1 CR cells (cisplatin alone or with 150 nM UAMMC, read-out: Cisplatin IC50 with 150 nM of UAMMCs on IGROV1 CR cells), the pIC50 is 4.85. For the same molecule, the pIC50 in the data set on SKOV3 CR cells (cisplatin alone or with 150 nM UAMMC, read-out: Cisplatin IC4 with 150 nM of UAMMCs on SKOV3 CR cells, IC50) is 4.91. Moreover, in the data set on SENP1 [2], the “JAK2 SUMOylation” value is recorded as “decreased” and the SENP1 protein level result is listed as “increased”.

On to `Cc1cnc(Nc2ccc(OCCN3CCCC3)cc2)nc1Nc1cccc(S(=O)(=O)NC(C)(C)C)c1` [TG101348], for which the “phosphorylation of recombinant substrate STAT3 proteins by purified JAK2” value with JAK2 was “decreased phosphorylation”.

Regarding `C[C@@H]1CC[C@]2(C(=O)OCCNC(=O)OC(C)(C)C)CC[C@]3(C)C(=CCC4[C@@]5(C)CC[C@H](O)C(C)(C)C5CC[C@]43C)C2[C@H]1C` (stereo partly drawn) [UAMMC3], the “toxicity (cell viability)” value with IGROV1 CR cells is “higher toxicity”.

With `C[C@@H]1CC[C@]2(C(=O)OCC(=O)NCCO)CC[C@]3(C)C(=CCC4[C@@]5(C)CC[C@H](O)C(C)(C)C5CC[C@]43C)C2[C@H]1C` (stereo partly drawn) [UAMMC5], the “toxicity (cell viability)” value in the data set with IGROV1 CR cells was “higher toxicity”.

On to `CC1CCC2(C(=O)NCC(=O)N(C)CCO)CCC3(C)C(=CCC4C5(C)CCC(O)C(C)(C)C5CCC43C)C2C1C` (stereo not drawn) [UAMMC9], for which the “decrease of the IC50 of cisplatin” value in the data set with IGROV1 CR cells (150 nM UAMMC9, IGROVI CR cells) amounted to 4.19 fold.

Regarding `C[C@H]1[C@H](C)CC[C@]2(C(=O)O)CC[C@]3(C)C(=CC[C@@H]4[C@@]5(C)C[C@@H](O)[C@H](O)C(C)(C)[C@@H]5CC[C@]43C)[C@H]12` [corosolicin acid], in the data set with SKOV3 CR cells, the “synergistic effects with cisplatin (combination index)” value was “synergistic effects”.

In the case of `CC1(C)CC[C@]2(C(=O)O)[C@H](O)C[C@]3(C)C(=CC[C@@H]4[C@@]5(C)CC[C@H](O)C(C)(C)[C@@H]5CC[C@]43C)[C@H]2C1` [echinocyslic acid], the “synergistic effects with cisplatin (combination index)” value in the data set with SKOV3 CR cells is recorded as “synergistic effects”.

As for `C[C@@H]1CC[C@]2(C(=O)O)CC[C@]3(C)C(=CC[C@@H]4[C@@]5(C)CC[C@H](O)C(C)(C)[C@@H]5CC[C@]43C)[C@@H]2[C@]1(C)O` [pomolic acid], the “inhibited SENP1 activity in vitro” value on SENP1 [3] is reported as “inhibited”. Besides, the “synergistic effects with cisplatin (combination index)” value in the data set with SKOV3 CR cells is “synergistic effects”.

Regarding `C[C@@H]1CC[C@]2(C(=O)O)CC[C@]3(C)C(=CC[C@@H]4[C@@]5(C)C[C@@H](O)[C@H](O)C(C)(C)[C@@H]5CC[C@]43C)[C@@H]2[C@]1(C)O` [tormentic acid], on SENP1 [3], the “inhibited SENP1 activity in vitro” value is on record as “inhibited”. The “synergistic effects with cisplatin (combination index)” value in the data set with SKOV3 CR cells is “synergistic effects”.
